Data: patent publication US20120276560A1, “BIOMARKERS FOR ASSESSING SIALIC ACID DEFICIENCIES” (priority 2010, published 2012)

What was measured:
[1] = test system: Gne^−/− hGNED176V-Tg mice; details: administration in water; Malicdan et al. 2009; cited from earlier work
[2] = test system: mice homozygous for the M712T Gne mutation; details: ManNAc in water to mutant mice; Galeano et al. 2007; cited from earlier work
[3] = test system: PSA-NCAM; assay: Western blot of serum PSA-NCAM (RNL-1 antibody) in HIBM patient on ManNAc; format: in vivo, human; details: serum of ManNAc self-treated HIBM patient (2 years), FIG. 3 lane 7
Description: (§1) Serum samples from normal individuals, HIBM patients before treatment, patients suffering from myopathy but not HIBM, and a HIBM patient on ManNAc therapy for 2 years were purified to reduce serum proteins. The samples were subjected to SDS PAGE and stained with a monoclonal antibody to NCAM (RNL-1, SantaCruz Biotech, Inc., CA) capable of detecting sialylated and unsialylated forms of NCAM (FIGS. 2 and 3). As a control, serum samples from healthy individuals were prepared as described above and treated with sialidase to remove sialic acid.
(§2) For Western blotting, serum protein was extracted from 50 ul serum samples using Mem-PER® Eukaryotic Membrane Protein Extraction Reagent Kit (Thermo Scientific), then the hydrophilic (top) layer was cleaned and purified by SDS-PAGE Sample Prep Kit (Thermo Scientific). Final protein concentration was measured by BradfordUltra (Expedeon), and […] protein (15 uL) loaded per lane for electrophoresis separation. […] Primary (RNL-1, SantaCruz Biotech, Inc., CA) and secondary antibodies were applied, and detected using horseradish peroxidase (HRP) chemi-luminescence substrate (FIG. 3). […]
(§3) For desialylated control sample, serum protein from healthy non-myopathic individuals was treated with Vibrio cholerae neuroaminidase (Sigma) (FIG. 3, lane 8). HIBM patients who were routinely ingesting N-Acetylmannosamine (ManNAc) were analyzed as well (FIG. 3, lane 7).

[4] = test system: PSA-NCAM; assay: Neuraminidase digestion of normal human serum, Western blot with 123C3 antibody; format: biochemical; details: 37° C. 4 hours, 1 m unit enzyme per 3 μg protein, FIG. 4A lane 2, estimated
Description: Experiments were performed to determine whether PSA-NCAM can be detected in human serum using well-defined mouse monoclonal antibodies raised against human PSA-NCAM (123C3). Human serum was purified by Aurum serum protein kit (Bio-Rad) to remove albumin and IgG which can interfere with SDS-PAGE analysis. Raw serum was diluted 4 times with protein binding buffer (supplied in the kit) and applied to the column. The albumin/IgG depleted serum was eluted by centrifugation at 10,000 g for 20 seconds and protein concentration was determined by modified Lowry assay (Bio-Rad DC protein assay).
Purified serum was incubated in neuraminidase from Vibrio cholera (Sigma) at 37° C. for 4 hours in order to cleave sialic acid (SA) from serum polysialic acid-glycoproteins, including PSA-NCAM. Digestion was carried out at a concentration of 1 m unit enzyme per 3 μg of protein in 20 mM Tris buffer, pH 5.8. A negative control was included in the experiment under the same condition but without adding the neuraminidase. At the end of incubation, the mixture was cleaned up with micro bio-spin P30 columns (BioRad).
Proteins were analyzed on 10% denaturing Tris-glycine SDS-PAGE gel (Invitrogen) under reducing condition. […]

[5] = test system: PSA-NCAM; assay: Neuraminidase digestion of normal human serum, Western blot with C-20 polyclonal antibody; format: biochemical; details: 37° C. 4 hours, 0.35 m unit enzyme per μl serum, FIG. 5 lane 5
Description: Experiments were performed to investigate the pattern of serum PSA-NCAM sialylation between normal controls and HIBM patients using a polyclonal antibody raised against human PSA-NCAM. Human serum was purified by a two-steps protocol to enrich PSA-NCAM. Raw sera from both normal human and HIBM patient were extracted by Mem-PER® membrane protein extraction kit (Thermo Scientific) according to the manufacturer's protocol. Serum was first mixed with a detergent and then a second detergent was added to solubilize membrane proteins. After centrifugation at 10,000 g for 3 minutes, the mixture was incubated at 37° C. to separate hydrophobic proteins from hydrophilic proteins through phase partitioning. The top hydrophilic layer was then further purified by SDS-PAGE sample prep kit (Thermo Scientific) to remove detergents and other contaminants that interfere with SDS-PAGE analysis.
Purified serum was incubated with Vibrio cholera neuraminidase (Sigma) at 37° C. for 4 hours in order to cleave sialic acid (SA) from serum polysialic acid-glycoproteins, including PSA-NCAM. Digestion was carried out at a concentration of 0.35 m unit enzyme per μl of serum. […]
Proteins were analyzed on a 10% Mini-Protean precast gel (BioRad) under reducing condition with 5% 2-mercaptoethanol. Final protein concentration was measured by Bradford Ultra (Expedeon). […]

[6] = test system: PSA-NCAM; assay: Sialidase treatment of normal human serum, Western blot with RNL-1 antibody; format: biochemical; details: normal human serum treated with sialidase
Description: as §1, §2, §3

CC(=O)N[C@H]1[C@H]([C@H](O)[C@H](O)CO)OC(O)(C(=O)O)C[C@@H]1O (some centres unmarked) [sialic acid, 5-N-acetylneuraminic acid]
muscle atrophy and weakness [1]: reduced or prevented

sialyl-lactose
muscle atrophy and weakness [1]: reduced or prevented

CC(=O)N[C@@H]1C(O)O[C@H](CO)[C@@H](O)[C@@H]1O (some centres unmarked) [ManNAc, N-acetylmannosamine]
renal histology (podocyte foot processes) [2]: improved renal histology
sialylation of brain PSA-NCAM [2]: increased sialylation of brain PSA-NCAM
sialylation of renal podocalyxin [2]: increased sialylation of renal podocalyxin
survival [2]: improved survival
PSA-NCAM signal at ˜150 kD band on Western blot [3]: improved signal
muscle atrophy and weakness [1]: reduced or prevented

neuraminidase: neuraminidase from Vibrio cholera (Sigma), used to cleave sialic acid from serum glycoproteins
reduction of molecular weight of the PSA-NCAM triplet [4]: 10-15 kDa
intensity of the 130 kDa and 60 kDa PSA-NCAM bands [5]: significantly reduced in intensity
upper and middle PSA-NCAM bands on Western blot [6]: disappeared
